Laboratory results from PMC10823514, “Target Identification of a Class of Pyrazolone Protein Aggregation Inhibitor Therapeutics for Amyotrophic Lateral Sclerosis” (ACS Central Science, 2023).

Experiments:
[1] = test system: 25 kDa covalently modified band in HAP1 cells; assay: Photoaffinity labeling with HAP1 wild-type and Hsp27 knockout cells; type: binding; settings: 15 μM PRAPP
Text: First, we conducted photoaffinity labeling studies with wild-type (WT) HAP1 cells to verify the existence of the 25 kDa covalent modification that we observed in PC12 cells.
Figure 7 Photoaffinity Labeling Experiments with HAP1 cells. […] The nonspecific background modifications remain unchanged with increasing concentration of P3, further confirming the 25 kDa covalently modified band as a true target; (B) comparison of the photoaffinity labeling experiments with HAP1 wild-type (WT) cells and Hsp27 knockout (KO) cells at 15 μM PRAPP concentration.

14-3-3-Q = target: T1, 14-3-3-Q (Homo sapiens, UniProt P27348); assay: Fluorescent thermal shift assay (FTSA) with 14-3-3-Q; type: binding
T1 construct: purchased Abchem (so in the source)
T1 sequence (P27348 1-245): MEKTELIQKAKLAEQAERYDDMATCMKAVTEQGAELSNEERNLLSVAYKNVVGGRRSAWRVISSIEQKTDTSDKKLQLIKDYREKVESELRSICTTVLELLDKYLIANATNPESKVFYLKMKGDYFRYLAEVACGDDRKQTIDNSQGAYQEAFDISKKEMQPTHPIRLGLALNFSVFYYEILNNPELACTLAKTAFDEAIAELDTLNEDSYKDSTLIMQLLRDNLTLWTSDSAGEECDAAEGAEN
Procedure: (§1) His-tagged 14-3-3-E, B, and H plasmids were purchased from Addgene (plasmid ID# 31562, 39128, and 38814, respectively). E. coli (BL21) were transformed with extracted plasmids via heat shock and plated on selected media. Individual colonies were selected, grown, and sequenced to confirm gene presence. 1 L cultures were grown to an OD600 of 0.6 at 37 °C and 220 rpm. Protein expression was induced with 1 mM IPTG and expressed for 12 h at 100 rpm and room temperature (approximately 25 °C). Cells were spun down at 4000 rpm for 15 min at 4 °C and resuspended in lysis buffer containing 50 mM Tris (7.4), 150 mM NaCl, 0.08% DDM, 5 mM imidazole, and 5% glycerol (with an EDTA-free complete mini protease inhibitor cocktail). Cells were lysed via sonication, and the lysate was separated from cell debris by centrifugation at 15,000 rpm, 4 °C, for 45 min. The His-tagged protein was purified using QIAGEN Ni-NTA superflow columns, and the His-tag was removed with TEV protease. His-tag-removed proteins were further purified by size exclusion chromatography. His tag removal and size exclusion chromatography purification were done at the Northwestern University Protein Production core. […]
(§2) All of the FTSA experiments were conducted in HEPES buffer (60 mM HEPES, 150 mM NaCl, pH 7.4). […] The fluorescence was measured on a Bio-Rad CFX384 real-time PCR instrument.

transgenic mice = settings: earlier work of the authors; cited from earlier work
14-3-3-B = target: T2, 14-3-3-B (Homo sapiens, UniProt P31946); assay: Fluorescent thermal shift assay (FTSA) with 14-3-3-B; type: binding; settings: 0 and 100 μM P2
T2 construct: His-tag (TEV-cleavable) (cleaved yes); host or cells: E. coli (BL21)
T2 sequence (P31946 1-246): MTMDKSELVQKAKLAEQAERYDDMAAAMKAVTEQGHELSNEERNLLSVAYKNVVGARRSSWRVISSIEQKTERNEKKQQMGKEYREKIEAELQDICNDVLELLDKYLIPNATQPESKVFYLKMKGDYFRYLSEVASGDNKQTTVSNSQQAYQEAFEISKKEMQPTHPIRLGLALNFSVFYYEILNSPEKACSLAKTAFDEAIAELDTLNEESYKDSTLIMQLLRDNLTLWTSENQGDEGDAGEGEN
Procedure: as §1, §2

C#CCN(Cc1cc(=O)[nH][nH]1)Cc1c(F)c(F)c(N=[N+]=[N-])c(F)c1F [PRAPP, 5-(((4-Azido-2,3,5,6-tetrafluorobenzyl)(prop-2-yn-1-yl)amino)methyl)-1,2-dihydro-3H-pyrazol-3-one]
intensity of the 25 kDa covalently modified band in Hsp27 KO versus WT cells [1]: remains unchanged

O=c1cc(COc2cc(Cl)cc(Cl)c2)[nH][nH]1 [P2]
Tm shift (ΔTm) (14-3-3-Q; SYPRO orange): 1.1 °C
Kd (14-3-3-Q; fit of ΔTm versus concentration, n = 2, read-out: Kd^app): 4.32 µM
increase of the median survival rate (transgenic mice): 13%
binding (Tm shift) (14-3-3-B): no binding
